Experiment in all cases: combination Emax (second highest fraction inhibited in the dose matrix, 72 h); higher = more inhibition; extreme values may be limits of the assay
Test [1] relates to OAW-42 (Ovarian Carcinoma). An outline of the steps: (§1)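 Cell lines in DMEM/F12 or RPMI with 10% FBS were plated in 1536-well plates, held 24 hours at 37°C, 5% CO2, then given two-drug dose matrices for 72 hours (DMSO typically 0.2%). Viability was read by CellTiter-Glo 2.0 luminescence and scaled as inhibition from 0 (vehicle wells) to 1 (blank wells). Combination Emax is the second-highest inhibition in the matrix; Bliss excess is observed combination effect minus expected EA + EB − EA·EB, EA and EB being single-agent effects.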

Test [2] has as its system LXF-289 (Lung Adenocarcinoma). An outline of the steps:
as §1

Test [3] has as its system LB996-RCC (Kidney Carcinoma). An outline of the steps: as §1
Test [4] relates to NCI-H23 (Lung Adenocarcinoma). An outline of the steps:
as §1

The test system of another test is WM793B (Melanoma). The method, boiled down: as §1
Test [5] has as its system CAL-62 (Thyroid Gland Carcinoma). An outline of the steps:
as §1

With `Cc1c2c(nn1C)CSCc1cc(n(C)n1)CSc1cc(c3ccccc3c1)OCCCc1c(C(=O)O)n(C)c3c-2c(Cl)ccc13` [AZD5991] + Cc1cc2ncnn2cc1Nc1ncc2c(n1)n(C1CCOCC1)c(=O)n2C [AZD7648] (first compound max 1 µM, 7x7, partner max 10 µM), the “combination Emax” value in test [1] is 0.502; in test [2], 0.369; in test [3], 0.363; in test [4] it was 0.934; with WM793B (Melanoma), 0.32; in test [5], 0.439.

Consider `Cc1c2c(nn1C)CSCc1cc(n(C)n1)CSc1cc(c3ccccc3c1)OCCCc1c(C(=O)O)n(C)c3c-2c(Cl)ccc13` [AZD5991] + C[C@@H](Nc1cc(F)cc(F)c1)c1cc(C(=O)N(C)C)cc2c(=O)cc(N3CCOCC3)oc12 [AZD8186] (first compound max 1 µM, 7x7, partner max 3 µM), for which the “combination Emax” value in test [1] came to 0.277; in test [2], 0.47; in test [3], 0.373; in test [4] it was 0.896; in the test on WM793B (Melanoma), 0.419; in test [5], 0.206.

`CN(CCO)CC[C@H](CSc1ccccc1)Nc1ccc(S(=O)(=O)NC(=O)c2ccc(N3CCC([C@@H](O)c4ccccc4-c4ccc(Cl)cc4)CC3)cc2)cc1S(=O)(=O)C(F)(F)F` [AZD4320] + C=CCn1c(=O)c2cnc(Nc3ccc(N4CCN(C)CC4)cc3)nc2n1-c1cccc(C(C)(C)O)n1 [AZD1775] (first compound max 1 µM, partner max 1 µM): the “combination Emax” value in test [1] came out at 0.496; in test [2] it was 0.638; in test [3], 0.978; in test [4], 0.832; in the test with WM793B (Melanoma), 0.622; in test [5], 0.878.

Consider `Cc1c2c(nn1C)CSCc1cc(n(C)n1)CSc1cc(c3ccccc3c1)OCCCc1c(C(=O)O)n(C)c3c-2c(Cl)ccc13` [AZD5991] + CN(C)CCCOc1ccc(-c2ccc3ncc4c(c3c2)n(C2CCOCC2)c(=O)n4C)cn1 [AZD0156] (first compound max 1 µM, 7x7, partner max 1 µM), for which the “combination Emax” value in test [1] is 0.556; in test [2], 0.427; in test [3] it was 0.265; in test [4], 0.913; with WM793B (Melanoma) it was 0.305; in test [5], 0.218.

On to `Cc1c2c(nn1C)CSCc1cc(n(C)n1)CSc1cc(c3ccccc3c1)OCCCc1c(C(=O)O)n(C)c3c-2c(Cl)ccc13` [AZD5991] + C1CN(CCC1(C(=O)N[C@@H](CCO)C2=CC=C(C=C2)Cl)N)C3=NC=NC4=C3C=CN4 [Capivasertib] (first compound max 1 µM, 7x7, partner max 3 µM), for which the “combination Emax” value is 0.37 in test [1]; 0.369 in test [2]; 0.433 in test [3]; 0.899 in test [4]; 0.31 in the test with WM793B (Melanoma); 0.152 in test [5].

For `Cc1c2c(nn1C)CSCc1cc(n(C)n1)CSc1cc(c3ccccc3c1)OCCCc1c(C(=O)O)n(C)c3c-2c(Cl)ccc13` [AZD5991] + C[C@@H]1COCCN1C2=NC(=NC(=C2)C3(CC3)[S@](=N)(=O)C)C4=C5C=CNC5=NC=C4 [AZD6738] (first compound max 1 µM, 7x7, partner max 10 µM), the “combination Emax” value was determined as 0.644 in test [1]; 0.776 in test [2]; 0.752 in test [3]; 0.977 in test [4]; 0.834 in the test on WM793B (Melanoma); 0.806 in test [5].

As to `CN(CCO)CC[C@H](CSc1ccccc1)Nc1ccc(S(=O)(=O)NC(=O)c2ccc(N3CCC([C@@H](O)c4ccccc4-c4ccc(Cl)cc4)CC3)cc2)cc1S(=O)(=O)C(F)(F)F` [AZD4320] + Cc1cc2ncnn2cc1Nc1ncc2c(n1)n(C1CCOCC1)c(=O)n2C [AZD7648] (first compound max 1 µM, 7x7, partner max 10 µM), the “combination Emax” value was found to be 0.348 in test [1]; 0.216 in test [2]; 0.321 in test [3]; 0.156 in test [4]; 0.221 with WM793B (Melanoma); 0.26 in test [5].

Turning to `COc1cccc(OCCCN)c1-c1cc(Nc2cnc(C#N)cn2)n[nH]1` [Prexasertib] + CCc1c2c(nc3ccc(O)cc13)-c1cc3c(c(=O)n1C2)COC(=O)[C@]3(O)CC [SN-38] (first compound max 1 µM, 7x7, partner max 0.3 µM), the “combination Emax” value in test [1] was determined as 0.827; in test [2], 0.787; in test [3], 0.947; in test [4], 0.948; with WM793B (Melanoma), 0.896; in test [5], 0.884.

`Cc1c2c(nn1C)CSCc1cc(n(C)n1)CSc1cc(c3ccccc3c1)OCCCc1c(C(=O)O)n(C)c3c-2c(Cl)ccc13` [AZD5991] + CCN(CCO)CCCOc1ccc2c(Nc3cc(CC(=O)Nc4cccc(F)c4)[nH]n3)ncnc2c1 [AZD2811] (first compound max 1 µM, 7x7, partner max 1 µM): the “combination Emax” value was 0.288 in test [1]; 0.864 in test [2]; 0.405 in test [3]; 0.926 in test [4]; 0.374 in the test with WM793B (Melanoma); 0.237 in test [5].

For the compound `CN(CCO)CC[C@H](CSc1ccccc1)Nc1ccc(S(=O)(=O)NC(=O)c2ccc(N3CCC([C@@H](O)c4ccccc4-c4ccc(Cl)cc4)CC3)cc2)cc1S(=O)(=O)C(F)(F)F` [AZD4320] + C1CN(CCC1(C(=O)N[C@@H](CCO)C2=CC=C(C=C2)Cl)N)C3=NC=NC4=C3C=CN4 [Capivasertib] (first compound max 1 µM, 7x7, partner max 3 µM), the “combination Emax” value in test [1] was determined as 0.282; in test [2], 0.173; in test [3], 0.494; in test [4] it was 0.093; with WM793B (Melanoma) it was 0.281; in test [5], 0.152.

Take `CN(CCO)CC[C@H](CSc1ccccc1)Nc1ccc(S(=O)(=O)NC(=O)c2ccc(N3CCC([C@@H](O)c4ccccc4-c4ccc(Cl)cc4)CC3)cc2)cc1S(=O)(=O)C(F)(F)F` [AZD4320] + CCN(CCO)CCCOc1ccc2c(Nc3cc(CC(=O)Nc4cccc(F)c4)[nH]n3)ncnc2c1 [AZD2811] (first compound max 1 µM, 7x7, partner max 1 µM): the “combination Emax” value was determined as 0.14 in test [1]; 0.471 in test [2]; 0.485 in test [3]; 0.216 in test [4]; 0.246 in the test on WM793B (Melanoma); 0.488 in test [5].

With `CC1(C)CCC(CN2CCN(c3ccc(C(=O)NS(=O)(=O)c4ccc(NCC5CCOCC5)c([N+](=O)[O-])c4)c(Oc4cnc5[nH]ccc5c4)c3)CC2)=C(c2ccc(Cl)cc2)C1` [Venetoclax] + C[C@@H](Nc1cc(F)cc(F)c1)c1cc(C(=O)N(C)C)cc2c(=O)cc(N3CCOCC3)oc12 [AZD8186] (first compound max 1 µM, 7x7, partner max 3 µM), the “combination Emax” value in test [1] came to 0.125; in test [2], 0.224; in test [3], 0.306; in test [4], 0.148; with WM793B (Melanoma) it was 0.36; in test [5] it was 0.119.

As for `Cc1c2c(nn1C)CSCc1cc(n(C)n1)CSc1cc(c3ccccc3c1)OCCCc1c(C(=O)O)n(C)c3c-2c(Cl)ccc13` [AZD5991] + C=CCn1c(=O)c2cnc(Nc3ccc(N4CCN(C)CC4)cc3)nc2n1-c1cccc(C(C)(C)O)n1 [AZD1775] (first compound max 1 µM, partner max 1 µM), the “combination Emax” value amounted to 0.502 in test [1]; 0.813 in test [2]; 0.856 in test [3]; 0.966 in test [4]; 0.582 in the test on WM793B (Melanoma); 0.766 in test [5].

As to `CC1(C)CCC(CN2CCN(c3ccc(C(=O)NS(=O)(=O)c4ccc(NCC5CCOCC5)c([N+](=O)[O-])c4)c(Oc4cnc5[nH]ccc5c4)c3)CC2)=C(c2ccc(Cl)cc2)C1` [Venetoclax] + Cc1cc2ncnn2cc1Nc1ncc2c(n1)n(C1CCOCC1)c(=O)n2C [AZD7648] (first compound max 1 µM, 7x7, partner max 10 µM), the “combination Emax” value in test [1] was 0.425; in test [2], 0.163; in test [3], 0.373; in test [4], 0.184; with WM793B (Melanoma), 0.309; in test [5] it was 0.366.

As to `Cc1c2c(nn1C)CSCc1cc(n(C)n1)CSc1cc(c3ccccc3c1)OCCCc1c(C(=O)O)n(C)c3c-2c(Cl)ccc13` [AZD5991] + Cn1cnc2c(F)c(Nc3ccc(Br)cc3Cl)c(C(=O)NOCCO)cc21 [Selumetinib] (first compound max 1 µM, 7x7, partner max 3 µM), the “combination Emax” value in test [1] came out at 0.263; in test [2], 0.398; in test [3], 0.255; in test [4], 0.934; with WM793B (Melanoma), 0.454; in test [5], 0.354.

For the compound `CC1(C)CCC(CN2CCN(c3ccc(C(=O)NS(=O)(=O)c4ccc(NCC5CCOCC5)c([N+](=O)[O-])c4)c(Oc4cnc5[nH]ccc5c4)c3)CC2)=C(c2ccc(Cl)cc2)C1` [Venetoclax] + COc1cc(Nc2ncc3c(n2)-c2ccc(Cl)cc2C(c2c(F)cccc2OC)=NC3)ccc1C(=O)O [Alisertib] (first compound max 1 µM, 7x7, partner max 10 µM), the “combination Emax” value in test [1] is 0.652; in test [2] it was 0.643; in test [3] it was 0.658; in test [4], 0.464; in the test on WM793B (Melanoma), 0.383; in test [5], 0.51.

Regarding `COc1nnc2ccc(N3CCC(c4ccc(OCCN5CCN(C)C(=O)[C@H]5C)cc4)CC3)nn12` [AZD5153] + CN(CC[C@H](CSC1=CC=CC=C1)NC2=C(C=C(C=C2)S(=O)(=O)NC(=O)C3=CC=C(C=C3)N4CCC(CC4)[C@H](C5=CC=CC=C5C6=CC=C(C=C6)Cl)O)S(=O)(=O)C(F)(F)F)CCO [AZD4320] (first compound max 1 µM, 7x7, partner max 1 µM), the “combination Emax” value in test [1] is 0.41; in test [2] it was 0.667; in test [3], 0.539; in test [4], 0.766; in the test with WM793B (Melanoma), 0.508.

For the origin of these results see the supplement of paper PMC11061612.
